Assay results: patent US10131652B2, “Pyrimidinyloxy benzene derivatives as herbicides” (E. I. DU PONT DE NEMOURS AND COMPANY, priority 2014, dated 2018)

Legend:
Assay type in all cases: in vivo
[1] = test system: barnyardgrass (Echinochloa crus-galli); assay: Test B pre-/postemergence plant response
In short: (§1)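 Evaluation is visual, about 10 days after application, rating injury from 0 (none) to 100 (complete control) relative to untreated controls. Application was a preemergence soil spray on seeded pots or a postemergence spray on one- to two-leaf plants.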

[2] = test system: giant foxtail (Setaria faberii); assay: Test B pre-/postemergence plant response
In short: as §1

[3] = test system: pigweed (Amaranthus retroflexus); assay: Test B pre-/postemergence plant response
In short: as §1

[4] = test system: wheat (Triticum aestivum); assay: Test B pre-/postemergence plant response
In short: as §1

[5] = test system: corn (Zea mays); assay: Test B pre-/postemergence plant response
In short: as §1

[6] = test system: galium (catchweed bedstraw, Galium aparine); assay: Test D pre-/postemergence plant response
From the text: (§2) Seeds of plant species selected from blackgrass (Alopecurus myosuroides), Italian ryegrass (Lolium multiflorum), winter wheat (Triticum aestivum), galium (catchweed bedstraw, Galium aparine), corn (Zea mays), large (Lg) crabgrass (Digitaria sanguinalis), giant foxtail (Setaria faberii), johnsongrass (Sorghum halepense), lambsquarters (Chenopodium album), morningglory (Ipomoea coccinea), yellow nutsedge (Cyperus esculentus), pigweed (Amaranthus retroflexus), ragweed (common ragweed, Ambrosia elatior), soybean (Glycine max), bamyardgrass (Echinochloa crus-galli), oilseed rape (Brassica napus), waterhemp (common waterhemp, Amaranthus rudis), and velvetleaf (Abutilon theophrasti) were planted into a blend of loam soil and sand and treated preemergence with test chemicals formulated in a non-phytotoxic solvent mixture which included a surfactant. At the same time, plants selected from these crop and weed species and also kochia (Kochia scoparia), wild oat (Avena fatua), and chickweed (common chickweed, Stellaria media) were planted in pots containing Redi-Earth® planting medium (Scotts Company, 14111 Scottslawn Road, Marysville, Ohio 43041) comprising spaghnum peat moss, vermiculite, wetting agent and starter nutrients and treated with postemergence applications of test chemicals formulated in the same manner. Plants ranged in height from 2 to 18 cm (1- to 4-leaf stage) for postemergence treatments. Treated plants and controls were maintained in a greenhouse for 13 to 15 days, after which time all species were compared to controls and visually evaluated. Plant response ratings, summarized in Table D, are based on a scale of 0 to 100 where 0 is no effect and 100 is complete control. A dash (-) response means no test result.

[7] = test system: winter wheat (Triticum aestivum); assay: Test D pre-/postemergence plant response
From the text: as §2

[8] = test system: waterhemp (common waterhemp, Amaranthus rudis); assay: Test D pre-/postemergence plant response
From the text: as §2

[9] = test system: lambsquarters (Chenopodium album); assay: Test D pre-/postemergence plant response
From the text: as §2

[10] = test system: soybean (Glycine max); assay: Test D pre-/postemergence plant response
From the text: as §2

[11] = test system: ragweed (common ragweed, Ambrosia elatior); assay: Test D pre-/postemergence plant response
From the text: as §2

[12] = test system: morningglory (Ipomoea coccinea); assay: Test D pre-/postemergence plant response
From the text: as §2

[13] = test system: Italian ryegrass (Lolium multiflorum); assay: Test D pre-/postemergence plant response
From the text: as §2

[14] = test system: yellow nutsedge (Cyperus esculentus); assay: Test D pre-/postemergence plant response
From the text: as §2

[15] = test system: large (Lg) crabgrass (Digitaria sanguinalis); assay: Test D pre-/postemergence plant response
From the text: as §2

[16] = test system: corn (Zea mays); assay: Test D pre-/postemergence plant response
From the text: as §2

[17] = 125 g ai/ha, postemergence, 0 to 100 scale, 0 no effect, 100 complete control
[18] = Postemergence, 500 g ai/ha, 0 to 100 scale (0 no effect, 100 complete control)
[19] = Preemergence, 125 g ai/ha, 0 to 100 scale where 0 is no effect and 100 is complete control
[20] = Preemergence, 500 g ai/ha, 0 to 100 scale where 0 is no effect and 100 is complete control
[21] = Postemergence, 16 g ai/ha, scale 0 to 100 (0 no effect, 100 complete control)
[22] = Postemergence, 31 g ai/ha, scale 0 to 100 (0 no effect, 100 complete control)
[23] = Postemergence, 62 g ai/ha, scale 0 to 100, 0 no effect, 100 complete control
[24] = Postemergence, 125 g ai/ha, scale 0 to 100, 0 no effect, 100 complete control
[25] = Preemergence, 16 g ai/ha, scale 0 to 100 (0 no effect, 100 complete control)
[26] = Preemergence, 31 g ai/ha, scale 0 to 100 (0 no effect, 100 complete control)
[27] = Preemergence, 62 g ai/ha, scale 0 to 100 (0 no effect, 100 complete control)

Cc1cc(-c2ccccc2Oc2ncc(Cl)cn2)on1 [Compound 58]
Plant response rating, Barnyardgrass [1, 17]: 70
Plant response rating, Barnyardgrass [1, 18]: 90
Plant response rating, Barnyardgrass [1, 19]: 60
Plant response rating, Barnyardgrass [1, 20]: 100
Plant response rating, Foxtail, Giant [2, 17]: 70
Plant response rating, Foxtail, Giant [2, 18]: 90
Plant response rating, Foxtail, Giant [2, 19]: 90
Plant response rating, Foxtail, Giant [2, 20]: 100
Plant response rating, Pigweed [3, 17]: 100
Plant response rating, Pigweed [3, 18]: 100
Plant response rating, Pigweed [3, 19]: 100
Plant response rating, Pigweed [3, 20]: 100
Plant response rating, Wheat [4, 17]: 0
Plant response rating, Wheat [4, 18]: 50
Plant response rating, Corn [5, 17]: 0
Plant response rating, Corn [5, 18]: 50
Galium plant response rating [6, 21]: 40
Galium plant response rating [6, 22]: 45
Plant response rating, Galium [6, 23]: 60
Plant response rating, Galium [6, 24]: 55
Plant response rating (scale 0 to 100), Galium ([6]; Preemergence, 125 g ai/ha): 100
Plant response rating, Galium [6, 25]: 0
Plant response rating, Galium [6, 26]: 98
Plant response rating, Galium [6, 27]: 100
Wheat plant response rating [7, 21]: 0
Wheat plant response rating [7, 22]: 5
Plant response rating, Wheat [7, 23]: 10
Plant response rating, Wheat [7, 24]: 10
Plant response rating (scale 0 to 100), Wheat ([7]; Preemergence, 125 g ai/ha): 0
Plant response rating, Wheat [7, 25]: 0
Plant response rating, Wheat [7, 26]: 0
Plant response rating, Wheat [7, 27]: 0
Waterhemp plant response rating [8, 21]: 35
Waterhemp plant response rating [8, 22]: 40
Plant response rating, Waterhemp [8, 23]: 55
Plant response rating, Waterhemp [8, 24]: 75
Plant response rating (scale 0 to 100), Waterhemp ([8]; Preemergence, 125 g ai/ha): 100
Plant response rating, Waterhemp [8, 25]: 100
Plant response rating, Waterhemp [8, 26]: 100
Plant response rating, Waterhemp [8, 27]: 100
Lambsquarters plant response rating [9, 21]: 10
Lambsquarters plant response rating [9, 22]: 75
Plant response rating, Lambsquarters [9, 23]: 60
Plant response rating, Lambsquarters [9, 24]: 90
Plant response rating (scale 0 to 100), Lambsquarters ([9]; Preemergence, 125 g ai/ha): 100
Plant response rating, Lambsquarters [9, 25]: 25
Plant response rating, Lambsquarters [9, 26]: 100
Plant response rating, Lambsquarters [9, 27]: 100
Soybean plant response rating [10, 21]: 55
Soybean plant response rating [10, 22]: 40
Plant response rating, Soybean [10, 23]: 60
Plant response rating, Soybean [10, 24]: 75
Plant response rating (scale 0 to 100), Soybean ([10]; Preemergence, 125 g ai/ha): 85
Plant response rating, Soybean [10, 25]: 30
Plant response rating, Soybean [10, 26]: 35
Plant response rating, Soybean [10, 27]: 80
Ragweed plant response rating [11, 21]: 20
Ragweed plant response rating [11, 22]: 45
Plant response rating, Ragweed [11, 23]: 65
Plant response rating, Ragweed [11, 24]: 60
Plant response rating (scale 0 to 100), Ragweed ([11]; Preemergence, 125 g ai/ha): 100
Plant response rating, Ragweed [11, 25]: 100
Plant response rating, Ragweed [11, 26]: 35
Plant response rating, Ragweed [11, 27]: 75
Morningglory plant response rating [12, 21]: 20
Morningglory plant response rating [12, 22]: 45
Plant response rating, Morningglory [12, 23]: 45
Plant response rating, Morningglory [12, 24]: 65
Plant response rating (scale 0 to 100), Morningglory ([12]; Preemergence, 125 g ai/ha): 45
Plant response rating, Morningglory [12, 25]: 10
Plant response rating, Morningglory [12, 26]: 25
Plant response rating, Morningglory [12, 27]: 0
Ryegrass, Italian plant response rating [13, 21]: 0
Ryegrass, Italian plant response rating [13, 22]: 0
Plant response rating, Ryegrass, Italian [13, 23]: 0
Plant response rating, Ryegrass, Italian [13, 24]: 0
Plant response rating (scale 0 to 100), Ryegrass, Italian ([13]; Preemergence, 125 g ai/ha): 5
Plant response rating, Ryegrass, Italian [13, 25]: 0
Plant response rating, Ryegrass, Italian [13, 26]: 0
Plant response rating, Ryegrass, Italian [13, 27]: 0
Nutsedge, Yellow plant response rating [14, 21]: 0
Nutsedge, Yellow plant response rating [14, 22]: 0
Plant response rating, Nutsedge, Yellow [14, 23]: 0
Plant response rating, Nutsedge, Yellow [14, 24]: 0
Plant response rating (scale 0 to 100), Nutsedge, Yellow ([14]; Preemergence, 125 g ai/ha): 15
Plant response rating, Nutsedge, Yellow [14, 25]: 0
Plant response rating, Nutsedge, Yellow [14, 26]: 0
Plant response rating, Nutsedge, Yellow [14, 27]: 0
Crabgrass, Large plant response rating [15, 21]: 5
Crabgrass, Large plant response rating [15, 22]: 5
Plant response rating, Crabgrass, Large [15, 23]: 5
Plant response rating, Crabgrass, Large [15, 24]: 5
Plant response rating (scale 0 to 100), Crabgrass, Large ([15]; Preemergence, 125 g ai/ha): 100
Plant response rating, Crabgrass, Large [15, 25]: 25
Plant response rating, Crabgrass, Large [15, 26]: 90
Plant response rating, Crabgrass, Large [15, 27]: 100
Corn plant response rating [16, 21]: 0
Corn plant response rating [16, 22]: 0
Plant response rating, Corn [16, 23]: 5
Plant response rating, Corn [16, 24]: 5
Plant response rating (scale 0 to 100), Corn ([16]; Preemergence, 125 g ai/ha): 20
Plant response rating, Corn [16, 25]: 5
Plant response rating, Corn [16, 26]: 20
Plant response rating, Corn [16, 27]: 10
